Tests used:
THP-1 cells = test: In vitro apoE secretion by THP-1 cells (ELISA); type: cell-based, human; conditions: 72 hours incubation, ELISA of culture medium
Source text: The in vitro assay comprises determining the effect of a compound of formula (I) in modulating the secretion of apoE by an apoE secreting cell line (e.g., a monocyte-macrophage cell line such as the THP-1 cell line, a liver derived cell line such as the HepG2 cell line, an intestinal derived cell line such as the CaCo2 cell line, or a brain derived cell line such as the astrocytoma CCF-STTG1 cell line). The experimental details for use of the THP-1 cell line in the in vitro assay are provided below.
The THP-1 cell line was derived from the peripheral blood of a child with acute monocytic leukaemia and were obtained from the European Collection of Animal Cell Cultures (ECACC, #88081201). […] The cells are grown as non-adherent cells in RPMI 1640 culture medium, 2 mM glutamine, 20 μM 2-mercaptoethanol. Fresh medium is added to maintain cell density between 2 and 9×10^5 cells/ml. […]
Ninety-six well-microtiter plates are coated by incubating with a 5% gelatin solution from porcine skin, bloom 60 in 50 mM carbonate-bicarbonate buffer, pH9.6 at the concentration of 200 μl/well, for 2 hours at 37° C. The coating solution is carefully removed and the sample to be analyzed was added (100 μl/well) at the appropriate dilution. […] The absorbance at 492 nm versus 620 nm is read on a microplate photometer and the results are then converted in human apoE ng equivalent. […]

apoE plasma levels = test: ApoE plasma levels in vivo in the rat (ATRA)
plasma apoE = test: Plasma apoE levels in vivo in rats fed a normal diet; design: species or system rat; conditions: orally, 400 mg/kg per day for 5 days
Source text: A convenient model for the screening of apoE modulating compounds is the model described in Leininger-Muller & Siest, 1996. This model involves the use of rats fed a normal diet. Selected compounds of formula (I) ae submitted to the in vivo rat test. Following are the results for compound 1, diethyl α-(dimethoxyphosphinyl)-p-chlorobenzyl phosphate: [drawing 3]
Two groups of 4 or 5 OFA rats (Iffa-Credo, France) weighing between 140 g and 160 g were acclimatized for at least one week, allowed UAR food and tap water ad libitum, under a 12/12 hours light/obscurity cycle (7.00 am-7.00 pm) then treated daily between 3.00 pm and 4.00 pm with test compounds ([…]) p.o. in a vehicle volume of 1 ml for 5 days. Compound 1 was given as a suspension in 20% Tween-80 supplemented with 0.5% carboxymethylcellulose. Control group received 1 ml vehicle alone. After a treatment period of 5 days, rats were weighed, sacrificed by decapitation under pentobarbital anesthesia after an overnight fast. Blood was collected on EDTA and plasma was used for analysis. When given orally to rats at the dose of 400 mg/kg per day for 5 days, compound 1 increased plasma apoE by 61±8%.

apoE in sciatic nerve = test: Sciatic nerve tissue apoE levels in vivo, rat model of sciatic injury (ELISA); conditions: rats, orally, 400 mg/kg/day for 37 days; % change from control
Experimental: A rat model of sciatic injury was established according to Goodrum & Boudin, 1996. Rats with or without nerve injury were treated orally with compound 1 (400 mg/kg for 5 weeks). The amount of apoE was determined in homogenates of the sciatic nerves by ELISA using a goat anti-apolipoprotein E antibody. A dilution to 1/200 of rat plasma was coated on microtiter plates; apoE was recognized by the polyclonal antibody; the conjugate (anti-goat IgG peroxidase) antibody was then added for substrate biochemical recognition. Apolipoprotein E was expressed as % change from mean control value. Cholesterol was measured with a commercially available enzymatic kit (Bioreac, Switzerland). Results were expressed as % change from control group.

| SMILES | production of apoE by THP-1 cells (THP-1 cells) | apoE plasma levels observed in vivo in the rat (apoE plasma levels) | increase of plasma apoE (plasma apoE) [%] | increase of apoE in the contralateral nerve (apoE in sciatic nerve) [%] | increase of apoE in the crushed sciatic nerve (apoE in sciatic nerve) [%] |
| --- | --- | --- | --- | --- | --- |
| CC1=C(/C=C/C(C)=C/C=C/C(C)=C/C(=O)O)C(C)(C)CCC1 [ATRA, all-trans retinoic acid] | decreased the production of apoE | decreased apoE plasma levels |  |  |  |
| CCOP(=O)(OCC)OC(c1ccc(Cl)cc1)P(=O)(OC)OC (stereo not drawn) [compound 1, diethyl α-(dimethoxyphosphinyl)-p-chlorobenzyl phosphate] |  |  | 61±8 | 58 | 154 |
